# Assay results as given in US10842814B2, “Use of low dose arsenic for preserving genomic integrity” (Board of Regents of the University of Texas System, priority 2016, dated 2020).
# Entries after “also recorded” stand apart in the source; their conditions may differ.
# Columns and labels:
# bone marrow cells = assay: Bone marrow protection against Y-90 ibritumomab tiuxetan-induced damage (H&E, γ-H2AX, TUNEL staining); format: in vivo, BALB/c mice
# Method: At the indicated time points, mice were sacrificed by cervical […] and bone marrows were harvested for staining. (A) Quantification of γ-H2AX positive cells.
# LDA pretreatment was administered through drinking water containing 1 mg/L arsenic trioxide for three days. […] Tissue samples were collected at different time points (3 hours to 5 weeks) after treatment.
# Bone marrow damage was analyzed histologically with hematoxylin and eosin (H&E) staining, DNA DSBs were assessed by γ-H2AX staining and apoptosis was detected by terminal deoxynucleotidyl transferase dUTP nick end labeling (TUNEL) staining.
# Karpas 422 = assay: Mouse xenograft model with CD20 expressing lymphoma cell line, tumor volume; format: in vivo
# Method: Treatments were initiated 1 week after implantation when tumors became palpable. Tumor volumes were measured periodically with calipers. Tumor volume was calculated using the equation: volume=length×width×depth×0.5236 […]. Two independent experiments were done and the tumor volumes were expressed as means±SE.
# peripheral T-lymphocytes = assay: Telomere length of ConA-stimulated peripheral blood T-lymphocytes after radiation or chemotherapy; format: cell-based, human; conditions: 100 nM arsenic trioxide for 24 hours, then 12 Gy X-ray, harvested 48 hours later
# Method: FIG. 2. T-lymphocytes isolated from healthy donors' peripheral blood were incubated with 10 μg/ml of Concanavalin A overnight. The cells were treated with either solvent or 100 nM arsenic (As) trioxide for 24 hours, followed by 12 Gy of X-ray treatment. Forty-eight hours later, the cells were harvested for telomere length measurement. The results represent four independent experiments. Paired student's t-test was used to calculate the p values.
# FIG. 3. (A) Live cell percentage and (B) relative telomere length of T-lymphocytes in response to a serial dilution of etoposide. (C) Live cell percentage and (D) relative telomere length of T-lymphocytes treated with solvent or 160 μM etoposide in the presence or absence of LDA pretreatment.
# FIG. 4. (A) Live cell percentage and (B) relative telomere length of T-lymphocytes in response to a serial dilution of doxorubicin. (C) Live cell percentage and (D) relative telomere length of T-lymphocytes treated with solvent or 1.6 μM doxorubicin in the presence or absence of LDA pretreatment.
# As one of the first steps to explore the role of LDA in protecting the bone marrow from DNA DSBs as observed in FIG. 1 above, we studied the effect of LDA on telomere length in the setting of IR. We observed the expected shortening of telomere length in the peripheral T-lymphocytes (obtained from donors' peripheral blood and proliferated with ConA) after IR.
# [1] = test system: T-cell leukemic cell line (Loucy); assay: Relative telomere length of T-cell leukemic cell line after 12 Gy radiation; format: cell-based; conditions: presence or absence of LDA
# Source text: FIG. 5. Relative telomere length of T-cell leukemic cell line (Loucy) after 12 Gy of radiation in the presence or absence of LDA treatment.
# [2] = Clinical trial: toxicity and blood counts during myelosuppressive chemotherapy; format: in vivo, human
# Source text: Additionally, data from a clinical trial supports a beneficial effect of LDA in patients. The trial had two objectives: 1) to define the lowest safe dose of arsenic trioxide that blocks p53 activation in patients and 2) to assess the potential of LDA in decreasing hematological toxicity from myelosuppressive chemotherapy. Patients scheduled for treatment with at least 4 cycles of myelosuppressive chemotherapy with a minimum of 2 weeks between the cycles were eligible.
# The p53 expression level in patients' peripheral lymphocytes was measured as a surrogate marker for p53 activity for the patients. […] For the second stage of the study (second objective), patients were treated with chemotherapy without any LDA pretreatment before cycles 1, 3 and 5. They were treated with intravenous LDA of 0.005 mg/kg for 3 days prior to cycles 2, 4 and 6. […] Because the competing and compounding effects of multi-drug chemotherapy on p53 were felt to affect the p53 activity even in the presence of LDA pretreatment, we decided to focus on p53 activity obtained just prior to chemotherapy administration (on day 1). If the p53 activity level for the subsequent cycle (e.g., cycle 2 for cycle 1, cycle 4 for cycle 3 etc.) was lower than the baseline cycle, p53 was defined as “suppressed” for the pair of cycles. […]
# [3] = test system: mouse embryonic stem (ES) cells (WT, msh2−/−, p53−/−); assay: Survival fraction of ES cells exposed to γ radiation and LDA; format: cell-based
# Method: FIG. 6. Dose response to γ radiation and sodium (Na) arsenite. (A, B) Survival fraction curves to determine the working doses. The wild type (WT) cells (black, green) are the parental cells for the msh2 and p53 mutations, respectively. (C, D) Survival fraction curves with msh2−/− and p53−/− cells exposed to γ radiation and LDA (100 nM Na arsenite). Error bars are shown for the average of 3 independent experiments.
# To discover LDA essential genes, cell survival and DNA damage/mutation assays will be performed. First we will establish working doses for all control and mutant cells in Table 1 since they will vary depending on the mutation. As a pilot we started with ES cells mutated for Msh2 and p53 since mutations in both are implicated in the development and progression of secondary MDS/AML.
# Msh2 is a member of mismatch repair (MMR) important for postreplication repair and homologous recombination regulation while p53 is essential for responses to a variety of stresses including DNA damage and ribosomal stress. Based on the dose response curve (FIGS. 6A, B), cells will be exposed to 100 nM sodium arsenite 24 hours before exposure to 3-6 Gy. […] Since the differences for the […] cells and their control cells are small, we will repeat the experiment with different Na arsenite doses. […]
# untransformed cells = assay: Pretreatment of untransformed cells with LDA: p53, NF-kB, glycolysis; format: cell-based; conditions: in vitro and in vivo studies
# Source text: Activation of p53 is one of the major pathways by which DNA damaging agents such as radiation therapy and chemotherapy cause toxicity in normal tissues and it induces a cascade of events that eventually leads to cell senescence or death. […] This metabolic shift provides cells with effective protection against cytotoxic radiation or chemotherapy, coupling the metabolic pathway to cellular resistance. […] This protective effect is selective to normal tissues, as it requires functional p53. Though not every cancer cell has detectable p53 mutation, essentially every cancer cell has dysfunctional p53. Therefore, cancer cells will not be protected by this strategy.
# Activation of p53 is one of major pathways by which DNA damaging agents such as IR and chemotherapy cause toxicity in normal tissues, inducing a cascade of events that eventually leads to cell senescence or cell death. […] This metabolic shift provides cells with effective protection against cytotoxic IR or chemotherapy, coupling the metabolic pathway to cellular resistance. […] Importantly, this protective effect is selective to normal tissues, as it requires functional p53. Though not every cancer cell has a detectable p53 mutation, essentially every cancer cell has dysfunctional p53. Therefore, cancer cells will not be protected by this strategy.
# telomere = conditions: individuals with telomere maintenance disorders; cited from earlier work
# [4] = test system: human adult foreskin keratinocytes; conditions: cited from earlier work
# telomerase = target: T1, telomerase (Homo sapiens, UniProt O14746); assay: Telomerase activity by TRAP assay; format: cell-based; conditions: HEK 293T, LDA 0 nM to 500 nM for 24 hrs, 12 Gy IR, further 48 hrs
# T1 construct: Extracted protein (500 ng) was used to assess telomerase activity by TRAP; endogenous in cells; host or cells: HEK 293T cells
# Method: FIG. 7. HEK cells were stimulated with ConA, 10 μg/ml. After 24 hrs, LDA was introduced (range from 0 nM to 500 nM) and again incubated 24 hrs. 12 Gy of IR was delivered, cells were incubated an additional 48 hrs and harvested. Extracted protein (500 ng) was used to assess telomerase activity by TRAP, compared with a telomerase positive control and no-Arsenic, no-IR control. HI: heat inactivated.
# However, we will test this observation in T lymphocytes, which are known to dynamically regulate telomerase expression. This will better recapitulate the effect of LDA within the hematopoietic compartment.
# [5] = Observation of arsenic-induced malignancy in animal model; format: in vivo
# Source text: Arsenic has different biological effects in vitro and induces expression of different sets of genes depending on the dose. Our approach with LDA aims to mitigate certain known adverse biological effects. For example, arsenic trioxide is a cytotoxic agent used to treat acute promyelocytic leukemia (APL). However, the dose of arsenic trioxide used for our strategy is much lower than the dose used to treat APL. Arsenic is also a known carcinogen.
# [6] = test system: mouse embryonic stem cells expressing RAD51^K133A; assay: Loss of heterozygosity (LOH) assay, miniHPRT deletion, 6-TG resistance; format: cell-based
# Source text: FIG. 8. […] NT; no arsenite treatment, WT; wild type embryonic stem cells, KA; mutant embryonic stem cells expressing RAD51^K133A
# We performed a loss of heterozygosity (LOH) assay to detect mutations in the HPRT gene [resistance to 6-TG (thioguanine)] utilizing a mouse embryonic stem cells that express RAD51^K133A. We used a knockout-knockin strategy that introduces RAD51^K133A adjacent to the mouse RAD51 promoter while restoring miniHPRT, a positive/negative selection cassette: select for expression in HAT (hypoxanthine, aminopterin, thymidine) and select against expression in 6-TG. We screen for LOH of miniHPRT by selecting in 6-TG. Using this assay, we can detect a broad range of mutations. RAD51 is a recombinase that is essential for DNA double strand break repair and for protecting the nascent strand during replication. The K133A mutation is in the highly conserved Walker A motif and it causes a defect in ATP binding that disables the ability of RAD51 to induce topological changes in duplex DNA in an ATP-dependent manner.
# For this assay, mutant mouse embryonic stem cells expressing RAD51^K133A were passaged two times while being selected in HAT to remove any cells that spontaneously deleted miniHPRT. Then LDA and HAT were applied to these cells for 2 days. […] Cells were then seeded onto new plates in 6-TG and colonies were counted 8 days later. […]
# T1 sequence (O14746 whole entry): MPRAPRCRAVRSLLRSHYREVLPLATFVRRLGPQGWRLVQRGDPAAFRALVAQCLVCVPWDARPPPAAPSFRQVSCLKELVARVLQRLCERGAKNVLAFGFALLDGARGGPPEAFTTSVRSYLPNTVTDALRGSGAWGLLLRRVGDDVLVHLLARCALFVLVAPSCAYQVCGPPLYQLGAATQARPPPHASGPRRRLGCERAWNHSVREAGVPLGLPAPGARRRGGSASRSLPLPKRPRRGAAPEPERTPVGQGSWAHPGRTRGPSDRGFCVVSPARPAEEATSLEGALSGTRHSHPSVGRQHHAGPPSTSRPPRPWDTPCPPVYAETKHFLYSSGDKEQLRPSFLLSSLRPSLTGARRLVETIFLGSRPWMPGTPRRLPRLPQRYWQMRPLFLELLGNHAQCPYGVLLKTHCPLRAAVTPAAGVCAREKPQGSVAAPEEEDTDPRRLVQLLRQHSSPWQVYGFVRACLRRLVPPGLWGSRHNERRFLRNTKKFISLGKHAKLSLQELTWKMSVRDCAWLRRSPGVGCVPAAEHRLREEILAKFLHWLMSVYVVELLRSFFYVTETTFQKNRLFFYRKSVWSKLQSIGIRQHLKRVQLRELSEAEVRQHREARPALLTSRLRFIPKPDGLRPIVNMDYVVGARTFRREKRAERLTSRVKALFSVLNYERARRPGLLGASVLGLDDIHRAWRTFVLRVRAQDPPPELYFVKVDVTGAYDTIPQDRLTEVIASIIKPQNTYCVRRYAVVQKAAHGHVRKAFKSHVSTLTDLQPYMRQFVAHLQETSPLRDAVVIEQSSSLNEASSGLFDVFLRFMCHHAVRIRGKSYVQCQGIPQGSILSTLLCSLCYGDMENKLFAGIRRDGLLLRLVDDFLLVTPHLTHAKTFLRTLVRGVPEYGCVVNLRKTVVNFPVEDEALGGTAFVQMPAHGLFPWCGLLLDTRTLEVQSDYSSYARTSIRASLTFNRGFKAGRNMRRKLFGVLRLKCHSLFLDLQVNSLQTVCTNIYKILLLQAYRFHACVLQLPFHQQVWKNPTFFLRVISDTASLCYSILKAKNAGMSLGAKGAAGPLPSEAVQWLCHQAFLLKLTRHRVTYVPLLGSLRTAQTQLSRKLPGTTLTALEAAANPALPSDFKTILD
# T1 sequence (O60832 whole entry partner): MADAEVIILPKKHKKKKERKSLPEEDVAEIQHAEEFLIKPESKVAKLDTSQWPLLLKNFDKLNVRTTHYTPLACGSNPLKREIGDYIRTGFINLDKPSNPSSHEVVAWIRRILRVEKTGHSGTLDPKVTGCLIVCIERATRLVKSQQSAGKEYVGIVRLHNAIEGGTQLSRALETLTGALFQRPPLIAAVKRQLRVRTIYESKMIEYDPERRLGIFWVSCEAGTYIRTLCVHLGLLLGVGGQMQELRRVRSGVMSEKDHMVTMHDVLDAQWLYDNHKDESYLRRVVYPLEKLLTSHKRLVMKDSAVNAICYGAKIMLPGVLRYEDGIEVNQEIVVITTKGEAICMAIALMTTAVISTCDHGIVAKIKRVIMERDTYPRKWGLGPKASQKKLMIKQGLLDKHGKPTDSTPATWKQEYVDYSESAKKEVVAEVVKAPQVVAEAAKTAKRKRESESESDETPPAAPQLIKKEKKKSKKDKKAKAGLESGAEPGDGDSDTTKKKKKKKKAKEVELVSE
# T1 sequence (Q9NPE3 whole entry partner): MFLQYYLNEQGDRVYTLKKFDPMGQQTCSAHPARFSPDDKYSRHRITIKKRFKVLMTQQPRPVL
# T1 sequence (Q9NX24 whole entry partner): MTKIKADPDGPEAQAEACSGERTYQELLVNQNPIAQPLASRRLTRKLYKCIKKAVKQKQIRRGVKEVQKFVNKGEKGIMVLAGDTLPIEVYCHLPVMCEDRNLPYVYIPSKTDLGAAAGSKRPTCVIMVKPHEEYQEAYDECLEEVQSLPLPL
# T1 sequence (Q9NY12 whole entry partner): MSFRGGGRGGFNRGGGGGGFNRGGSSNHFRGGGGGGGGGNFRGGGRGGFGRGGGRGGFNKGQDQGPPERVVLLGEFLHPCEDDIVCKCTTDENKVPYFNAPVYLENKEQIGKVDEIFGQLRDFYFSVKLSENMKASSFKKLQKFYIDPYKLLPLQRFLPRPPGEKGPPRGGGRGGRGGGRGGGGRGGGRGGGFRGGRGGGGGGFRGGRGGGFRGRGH
# T1 sequence (Q9BUR4 whole entry partner): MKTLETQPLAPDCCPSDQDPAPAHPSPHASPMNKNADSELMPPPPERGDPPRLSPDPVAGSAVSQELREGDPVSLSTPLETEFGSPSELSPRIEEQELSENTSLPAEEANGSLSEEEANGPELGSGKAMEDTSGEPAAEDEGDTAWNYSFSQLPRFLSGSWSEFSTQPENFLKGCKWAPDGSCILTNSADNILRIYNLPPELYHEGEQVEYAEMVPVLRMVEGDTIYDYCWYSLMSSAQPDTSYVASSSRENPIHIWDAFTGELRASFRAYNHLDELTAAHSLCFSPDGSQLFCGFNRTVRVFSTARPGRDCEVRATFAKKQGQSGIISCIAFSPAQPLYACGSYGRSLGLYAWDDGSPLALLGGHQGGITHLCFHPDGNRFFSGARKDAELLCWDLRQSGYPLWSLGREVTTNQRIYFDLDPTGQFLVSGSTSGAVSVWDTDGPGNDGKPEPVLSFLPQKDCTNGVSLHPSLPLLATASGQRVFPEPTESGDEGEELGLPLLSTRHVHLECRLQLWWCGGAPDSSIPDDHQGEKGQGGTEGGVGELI
molecule,measurement,setting,value
arsenic trioxide [LDA],"bone marrow cell loss (loss of cellularity), H&E staining","bone marrow cells; LDA pretreatment (drinking water 1 mg/L arsenic trioxide, three days) before 200 μCi Y-90 ibritumomab tiuxetan via tail vein",protected; also recorded: significantly reduced
same,"apoptosis, TUNEL positive cells in bone marrow",bone marrow cells; LDA pretreatment before 200 μCi Y-90 ibritumomab tiuxetan,protected
same,"DNA DSBs, γ-H2AX positive cells in bone marrow","bone marrow cells; LDA pretreatment before 200 μCi Y-90 ibritumomab tiuxetan, 6 hours to 1 week after treatment",protected; also recorded: considerably diminished
same,growth of the implanted tumors (tumor volume),Karpas 422; LDA pretreatment alone,did not have any detectable effect
same,effect of LDA pretreatment on Y-90-induced tumor growth suppression,Karpas 422; LDA pretreatment followed by Y-90 ibritumomab tiuxetan,without compromising tumor response; also recorded: no effect
same,telomere length after IR,peripheral T-lymphocytes,maintenance of telomere length; also recorded: helps prevent shortening of telomere length
same,telomere length of leukemic cells,[1],does not make any difference
same,"mean ANC, WBC and Hgb, p53 suppressed group relative to activated group","[2]; 26 patients, LDA 0.005 mg/kg for 3 days before myelosuppressive chemotherapy cycles",statistically significantly higher; also recorded: better blood counts
same,LDA protection of control and msh2−/− cells from γ radiation (survival fraction),[3]; 100 nM Na arsenite 24 hours before γ radiation,protects both control and msh2^−/− cells from γ radiation
same,LDA-mediated protection in p53−/− cells versus WT (survival fraction),"[3]; 100 nM Na arsenite, γ radiation, differences small",p53 appears to assist in LDA-mediated protection
same,glycolysis,untransformed cells,marked induction of glycolysis
same,p53 and NF-kB response,untransformed cells,induces concerted p53 suppression and NF-kB activation
C#C[C@]1(O)CC[C@H]2[C@@H]3CCC4=Cc5oncc5C[C@]4(C)[C@H]3CC[C@@]21C [danazol],telomere attrition,telomere,significantly reduce telomere attrition
O[As](O)O [arsenite],concentration resulting in induced proliferation with enhanced NF-κB and AP-1 activity,[4]; 24 hr,≤ 5 µM
same,concentration with statistically significant decrease of cell viability,[4],≥ 10 µM
[AsH3] [arsenic],telomerase activity (TRAP),telomerase,no obvious difference in telomerase activity
same,arsenic-induced malignancy,[5],not observed any arsenic-induced malignancy
arsenic trioxide,arsenic trioxide related toxicity,"[2]; patients, first stage, arsenic trioxide intravenously",None of these patients experienced any arsenic trioxide related toxicity
O=[As]O [sodium arsenite],spontaneous deletion of miniHPRT (percentage of 6-TG-resistant cells),[6]; 5 nM sodium arsenite,reduced this deletion
same,spontaneous deletion of miniHPRT (percentage of 6-TG-resistant cells),[6]; 100 nM sodium arsenite,reduced this deletion
